Assay results from PubChem BioAssay (NCI).
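Each compound was tested at five concentrations against cells in 96-well plates for 48 hours. TGI: concentration producing complete growth inhibition.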

Legend:
Test in all cases: NCI-60 cell line screen, 48 h
UO-31 renal = tested on: UO-31 renal
SNB-75 CNS = tested on: SNB-75 CNS
MCF7 breast = tested on: MCF7 breast
HOP-62 NSCLC = tested on: HOP-62 NSCLC
RXF 393 renal = tested on: RXF 393 renal
SK-MEL-28 melanoma = tested on: SK-MEL-28 melanoma
SK-MEL-5 melanoma = tested on: SK-MEL-5 melanoma
A498 renal = tested on: A498 renal
U251 CNS = tested on: U251 CNS
BT-549 breast = tested on: BT-549 breast
COLO 205 colon = tested on: COLO 205 colon
MDA-MB-435 = tested on: MDA-MB-435
OVCAR-3 ovarian = tested on: OVCAR-3 ovarian
MDA-MB-231 breast = tested on: MDA-MB-231 breast
HCC-2998 colon = tested on: HCC-2998 colon
SF-539 CNS = tested on: SF-539 CNS
HL-60(TB) leukemia = tested on: HL-60(TB) leukemia
DU-145 prostate = tested on: DU-145 prostate
SK-OV-3 ovarian = tested on: SK-OV-3 ovarian
HCT-15 colon = tested on: HCT-15 colon
UACC-257 melanoma = tested on: UACC-257 melanoma
SN12C renal = tested on: SN12C renal
HOP-92 NSCLC = tested on: HOP-92 NSCLC
OVCAR-4 ovarian = tested on: OVCAR-4 ovarian
SK-MEL-2 melanoma = tested on: SK-MEL-2 melanoma
SF-268 CNS = tested on: SF-268 CNS
KM12 colon = tested on: KM12 colon
SW-620 colon = tested on: SW-620 colon
HCT-116 colon = tested on: HCT-116 colon
MOLT-4 leukemia = tested on: MOLT-4 leukemia
MDA-N = tested on: MDA-N
CCRF-CEM leukemia = tested on: CCRF-CEM leukemia
LOX IMVI melanoma = tested on: LOX IMVI melanoma
UACC-62 melanoma = tested on: UACC-62 melanoma
IGROV1 ovarian = tested on: IGROV1 ovarian
EKVX NSCLC = tested on: EKVX NSCLC
RPMI-8226 leukemia = tested on: RPMI-8226 leukemia
NCI-H460 lung = tested on: NCI-H460 lung
M14 melanoma = tested on: M14 melanoma
NCI-H23 lung = tested on: NCI-H23 lung
OVCAR-5 ovarian = tested on: OVCAR-5 ovarian
TK-10 renal = tested on: TK-10 renal
SNB-19 CNS = tested on: SNB-19 CNS
K-562 leukemia = tested on: K-562 leukemia
SR leukemia = tested on: SR leukemia
HS 578T breast = tested on: HS 578T breast
SF-295 CNS = tested on: SF-295 CNS
T-47D breast = tested on: T-47D breast
ACHN renal = tested on: ACHN renal
A549 NSCLC = tested on: A549 NSCLC
CAKI-1 renal = tested on: CAKI-1 renal
786-0 renal = tested on: 786-0 renal
PC-3 prostate = tested on: PC-3 prostate

Measured: TGI

C[C@@H]1S[C@H](c2c(Cl)cccc2Cl)N2Cc3ccccc3N=C12
> 100 µM: all assays above
